Holding throughout (format): cell-based
Assay [1] has as its system spores of ATCC BBA1870 strain. The assay is described as follows: Inhibition of germination of C. difficile spores (MIC), strain ATCC BBA1870. Particulars: Clostridioides difficile, ATCCBBA1870STRAIN, 1 h, read-out: MIC (minimum concentration that completely inhibits spore germination). Here is the method:
(§1) According to a method disclosed in “The Journal of Infectious Diseases. 2013; 207: 1498-504”, spores of ATCC BBA1870, ATCC 43255 and ATCC 630 strains were obtained by culture and purification, and stored at 4° C.
(§2) Spore preparation: the C. difficile spores stored at 4° C. were heat-activated for 30 min at 65° C., centrifuged at 9,400 g for 2 min, and washed three times to remove any self-germinating spores.
(§3) Control drug: three cholic acid derivatives, a compound CamSA, a compound 20β (prepared by the method of “Journal of Medicinal Chemistry. 2017, 60 (8): 3451-3471”), and a compound 12a (prepared by the method of “Journal of Medicinal Chemistry. 2018, 61, 6759-6778”), were used as control drugs.
(§4) Compound preparation: the compound of the present disclosure, and the positive control drugs CamSA, 20β, and 12a were dissolved in DMSO, to prepare a stock solution with a concentration of 10 mM (prepared for immediate use).
(§5) The detection was conducted in a 96-well cell culture plate at a constant temperature of 37° C.; a final volume of each well of the 96-well plate was […] and a buffer was the BHIS medium; 150 μl of spores and drugs were added to the well in advance, and 50 μl of 4 mg/ml sodium taurocholate was added; OD580 was detected every 1 min immediately using a microplate reader, for continuously 60 min. A germination agent control group and a non-germination group were set up; after the detection, a final OD value of each well was compared with an initial value, and compared with the germination agent group to calculate a germination rate and an inhibition rate. A formula for the germination rate was:
(§6) Inhibition rate=100%−germination rate.

Assay [2] concerns spores of ATCC 43255 strain. Description: Inhibition of germination of C. difficile spores (MIC), strain ATCC 43255. Particulars: Clostridioides difficile, ATCC43255, 1 h, read-out: MIC (minimum concentration that completely inhibits spore germination). The protocol:
as §1, §2, §3, §4, §5, §6

In assay [3] the test system is spores of ATCC 630 strain. Description: Inhibition of germination of C. difficile spores (MIC), strain ATCC 630. Particulars: Clostridioides difficile, ATCC630, 1 h, read-out: MIC (minimum concentration that completely inhibits spore germination). The protocol:
as §1, §2, §3, §4, §5, §6

[4] abbreviates: strain 1870, sodium taurocholate as germinant, BHIS medium, 37° C., OD580 for 60 min.
Setting [5] is: strain 43255, sodium taurocholate as germinant, BHIS medium, 37° C., OD580 for 60 min.
Where [6] appears, read: strain 630, sodium taurocholate as germinant, BHIS medium, 37° C., OD580 for 60 min.

≈ marks a conversion by molar mass, not a printed value. Read-outs that look alike come from different tables or passages of the source. Where only a bound is given, the exact number is not on record here.

As for `C[C@H](CC(=O)NCc1cccs1)[C@H]1CC[C@H]2[C@@H]3C(=O)C[C@@H]4CC(=O)CC[C@]4(C)[C@H]3CC[C@]12C` [Compound I-26], the MIC in assay [1] (setting [4]) was found to be 0.5 µM (≈ 0.235 µg/mL); in assay [2] (setting [5]), 1 µM (≈ 0.47 µg/mL); in assay [3] (setting [6]) it was 0.5 µM (≈ 0.235 µg/mL).

With `CC(NC(=O)C[C@@H](C)[C@H]1CC[C@H]2[C@@H]3C(=O)C[C@@H]4CC(=O)CC[C@]4(C)[C@H]3CC[C@]12C)c1cccs1` (stereo partly drawn) [Compound I-27], the MIC in assay [1] (setting [4]), in assay [2] (setting [5]) and in assay [3] (setting [6]) was 2 µM (≈ 0.967 µg/mL) each time.

With `C[C@H](NC(=O)C[C@@H](C)[C@H]1CC[C@H]2[C@@H]3C(=O)C[C@@H]4CC(=O)CC[C@]4(C)[C@H]3CC[C@]12C)c1cccs1` [Compound I-28], the MIC in assay [1] (setting [4]), in assay [2] (setting [5]) and in assay [3] (setting [6]) was more than 256 µM in each case.

For the compound `C[C@H](CC(=O)N[C@H](C)c1cccs1)[C@H]1CC[C@H]2[C@@H]3C(=O)C[C@@H]4CC(=O)CC[C@]4(C)[C@H]3CC[C@]12C` [Compound I-29], the MIC in assay [1] (setting [4]), in assay [2] (setting [5]) and in assay [3] (setting [6]) was 1 µM (≈ 0.484 µg/mL) each time.

For the compound `Cc1ccc(C(C)NC(=O)C[C@@H](C)[C@H]2CC[C@H]3[C@@H]4C(=O)C[C@@H]5CC(=O)CC[C@]5(C)[C@H]4CC[C@]23C)s1` (stereo partly drawn) [Compound I-30], the MIC in assay [1] (setting [4]) came to 2 µM (≈ 0.995 µg/mL); in assay [2] (setting [5]), 2 µM (≈ 0.995 µg/mL); in assay [3] (setting [6]), 1 µM (≈ 0.498 µg/mL).

Turning to `Cc1ccsc1C(C)NC(=O)C[C@@H](C)[C@H]1CC[C@H]2[C@@H]3C(=O)C[C@@H]4CC(=O)CC[C@]4(C)[C@H]3CC[C@]12C` (stereo partly drawn) [Compound I-31], the MIC in assay [1] (setting [4]), in assay [2] (setting [5]) and in assay [3] (setting [6]) was 8 µM (≈ 3.98 µg/mL) each time.

For the compound `CC(NC(=O)C[C@@H](C)[C@H]1CC[C@H]2[C@@H]3C(=O)C[C@@H]4CC(=O)CC[C@]4(C)[C@H]3CC[C@]12C)c1ccc(Br)s1` (stereo partly drawn) [Compound I-33], the MIC in assay [1] (setting [4]) is 0.5 µM (≈ 0.281 µg/mL); in assay [2] (setting [5]), 1 µM (≈ 0.563 µg/mL); in assay [3] (setting [6]), 0.5 µM (≈ 0.281 µg/mL).

Regarding `CC(NC(=O)C[C@@H](C)[C@H]1CC[C@H]2[C@@H]3C(=O)C[C@@H]4CC(=O)CC[C@]4(C)[C@H]3CC[C@]12C)c1ccc(S(=O)(=O)O)s1` (stereo partly drawn) [Compound I-34], the MIC in assay [1] (setting [4]), in assay [2] (setting [5]) and in assay [3] (setting [6]) was 64 µM (≈ 36.1 µg/mL) throughout.

In the case of `CC[C@H](NC(=O)C[C@@H](C)[C@H]1CC[C@H]2[C@@H]3C(=O)C[C@@H]4CC(=O)CC[C@]4(C)[C@H]3CC[C@]12C)c1cccs1` [Compound I-36], the MIC is 8 µM (≈ 3.98 µg/mL) in assay [1] (setting [4]), 8 µM (≈ 3.98 µg/mL) in assay [2] (setting [5]) and 4 µM (≈ 1.99 µg/mL) in assay [3] (setting [6]).

For `CCC(NC(=O)C[C@@H](C)[C@H]1CC[C@H]2[C@@H]3C(=O)C[C@@H]4CC(=O)CC[C@]4(C)[C@H]3CC[C@]12C)c1ccc(Br)s1` (stereo partly drawn) [Compound I-38], the figures for the MIC in assay [1] (setting [4]), in assay [2] (setting [5]) and in assay [3] (setting [6]) were 2 µM (≈ 1.15 µg/mL), 2 µM (≈ 1.15 µg/mL) and 1 µM (≈ 0.577 µg/mL), respectively.

`CCC(NC(=O)C[C@@H](C)[C@H]1CC[C@H]2[C@@H]3C(=O)C[C@@H]4CC(=O)CC[C@]4(C)[C@H]3CC[C@]12C)c1ccc(S(=O)(=O)O)s1` (stereo partly drawn) [Compound I-39]: the MIC in assay [1] (setting [4]) was 1 µM (≈ 0.578 µg/mL); in assay [2] (setting [5]) it was 0.5 µM (≈ 0.289 µg/mL); in assay [3] (setting [6]) it was 0.5 µM (≈ 0.289 µg/mL).

With `CC(C)C(NC(=O)C[C@@H](C)[C@H]1CC[C@H]2[C@@H]3C(=O)C[C@@H]4CC(=O)CC[C@]4(C)[C@H]3CC[C@]12C)c1cccs1` (stereo partly drawn) [Compound I-40], the MIC in assay [1] (setting [4]) stood at 4 µM (≈ 2.05 µg/mL); in assay [2] (setting [5]), 2 µM (≈ 1.02 µg/mL); in assay [3] (setting [6]), 2 µM (≈ 1.02 µg/mL).

With `CCCCC(NC(=O)C[C@@H](C)[C@H]1CC[C@H]2[C@@H]3C(=O)C[C@@H]4CC(=O)CC[C@]4(C)[C@H]3CC[C@]12C)c1cccs1` (stereo partly drawn) [Compound I-42], the MIC came out at 2 µM (≈ 1.05 µg/mL) in assay [1] (setting [4]), 1 µM (≈ 0.526 µg/mL) in assay [2] (setting [5]) and 1 µM (≈ 0.526 µg/mL) in assay [3] (setting [6]).

On to `C[C@H](CC(=O)NC(c1cccs1)C(C)(C)C)[C@H]1CC[C@H]2[C@@H]3C(=O)C[C@@H]4CC(=O)CC[C@]4(C)[C@H]3CC[C@]12C` (stereo partly drawn) [Compound I-43], for which the MIC was determined as 64 µM (≈ 33.7 µg/mL) in assay [1] (setting [4]), 32 µM (≈ 16.8 µg/mL) in assay [2] (setting [5]) and 32 µM (≈ 16.8 µg/mL) in assay [3] (setting [6]).

As for `CCCCCC(NC(=O)C[C@@H](C)[C@H]1CC[C@H]2[C@@H]3C(=O)C[C@@H]4CC(=O)CC[C@]4(C)[C@H]3CC[C@]12C)c1cccs1` (stereo partly drawn) [Compound I-44], the MIC in assay [1] (setting [4]) is 256 µM (≈ 138 µg/mL); in assay [2] (setting [5]) it was more than 256 µM; in assay [3] (setting [6]) it was more than 256 µM.

Regarding `CCCCCCCC(NC(=O)C[C@@H](C)[C@H]1CC[C@H]2[C@@H]3C(=O)C[C@@H]4CC(=O)CC[C@]4(C)[C@H]3CC[C@]12C)c1cccs1` (stereo partly drawn) [Compound I-45], the MIC in assay [1] (setting [4]), in assay [2] (setting [5]) and in assay [3] (setting [6]) was more than 256 µM each time.

For the compound `CCCCCCCCCCCC(NC(=O)C[C@@H](C)[C@H]1CC[C@H]2[C@@H]3C(=O)C[C@@H]4CC(=O)CC[C@]4(C)[C@H]3CC[C@]12C)c1cccs1` (stereo partly drawn) [Compound I-46], the MIC in assay [1] (setting [4]), in assay [2] (setting [5]) and in assay [3] (setting [6]) was more than 256 µM in each case.

For the compound `CCCCCCCCCCCCCC(NC(=O)C[C@@H](C)[C@H]1CC[C@H]2[C@@H]3C(=O)C[C@@H]4CC(=O)CC[C@]4(C)[C@H]3CC[C@]12C)c1cccs1` (stereo partly drawn) [Compound I-47], the MIC in assay [1] (setting [4]), in assay [2] (setting [5]) and in assay [3] (setting [6]) was more than 256 µM each time.

As for `C[C@H](CC(=O)N[C@H](c1cccs1)C1CC1)[C@H]1CC[C@H]2[C@@H]3C(=O)C[C@@H]4CC(=O)CC[C@]4(C)[C@H]3CC[C@]12C` [Compound I-49], the MIC in assay [1] (setting [4]), in assay [2] (setting [5]) and in assay [3] (setting [6]) was more than 256 µM in each case.

As for `C[C@H](CC(=O)NC(c1ccc(S(=O)(=O)O)s1)C1CC1)[C@H]1CC[C@H]2[C@@H]3C(=O)C[C@@H]4CC(=O)CC[C@]4(C)[C@H]3CC[C@]12C` (stereo partly drawn) [Compound I-52], the MIC in assay [1] (setting [4]), in assay [2] (setting [5]) and in assay [3] (setting [6]) was 16 µM (≈ 9.44 µg/mL) in each case.

`C[C@H](CC(=O)NC(c1cccs1)C1CCCC1)[C@H]1CC[C@H]2[C@@H]3C(=O)C[C@@H]4CC(=O)CC[C@]4(C)[C@H]3CC[C@]12C` (stereo partly drawn) [Compound I-53]: the MIC in assay [1] (setting [4]), in assay [2] (setting [5]) and in assay [3] (setting [6]) was 32 µM (≈ 17.2 µg/mL) in each case.

With `C[C@H](CC(=O)NC(c1cccs1)C1CCCCC1)[C@H]1CC[C@H]2[C@@H]3C(=O)C[C@@H]4CC(=O)CC[C@]4(C)[C@H]3CC[C@]12C` (stereo partly drawn) [Compound I-54], the values for the MIC in assay [1] (setting [4]), in assay [2] (setting [5]) and in assay [3] (setting [6]) were more than 256 µM, more than 256 µM and 256 µM (≈ 141 µg/mL), respectively.

`C[C@H](CC(=O)NC(c1ccccc1)c1cccs1)[C@H]1CC[C@H]2[C@@H]3C(=O)C[C@@H]4CC(=O)CC[C@]4(C)[C@H]3CC[C@]12C` (stereo partly drawn) [Compound I-55]: the MIC was found to be 64 µM (≈ 34.9 µg/mL) in assay [1] (setting [4]), 32 µM (≈ 17.5 µg/mL) in assay [2] (setting [5]) and 32 µM (≈ 17.5 µg/mL) in assay [3] (setting [6]).

As to `C[C@H](CC(=O)NC(c1cccs1)c1cccs1)[C@H]1CC[C@H]2[C@@H]3C(=O)C[C@@H]4CC(=O)CC[C@]4(C)[C@H]3CC[C@]12C` [Compound I-56], the MIC in assay [1] (setting [4]), in assay [2] (setting [5]) and in assay [3] (setting [6]) was 16 µM (≈ 8.83 µg/mL) each time.

On to `C[C@H](CC(=O)NC(c1cccs1)C1CCC1)[C@H]1CC[C@H]2[C@@H]3C(=O)C[C@@H]4CC(=O)CC[C@]4(C)[C@H]3CC[C@]12C` (stereo partly drawn) [Compound I-57], for which the MIC in assay [1] (setting [4]) was 32 µM (≈ 16.8 µg/mL); in assay [2] (setting [5]), 32 µM (≈ 16.8 µg/mL); in assay [3] (setting [6]) it was 16 µM (≈ 8.38 µg/mL).

Take `CCC(NC(=O)C[C@@H](C)[C@H]1CC[C@H]2[C@@H]3C(=O)C[C@@H]4CC(=O)CC[C@]4(C)[C@H]3CC[C@]12C)c1ccccc1` (stereo partly drawn) [Compound I-58]: the MIC in assay [1] worked out at 8 µM (≈ 3.93 µg/mL); in assay [2], 4 µM (≈ 1.97 µg/mL); in assay [3], 4 µM (≈ 1.97 µg/mL).

The values above are taken from patent publication US20230135729A1, “COMPOUND WITH ANTI-SPORE ACTIVITY AND PHARMACEUTICAL COMPOSITION THEREOF” (priority 2020, published 2023).
